The source of these data is patent publication US20250154686A1, “COMPOUND LIBRARY” (CHUGAI SEIYAKU KABUSHIKI KAISHA, priority 2021, published 2025).

The target in the assay is T1, Bcl-2 protein (Recombinant Human Bcl-2 Protein) (Homo sapiens, UniProt P10415).
T1 construct: purchased Novus Biologicals NBP2-34889
In words: AS-MS evaluation of binding of the Example 4 mixture library (1200 compounds/well) to Bcl-2, ASMS ratio (%). The conditions noted are these: mixture library, value belongs to the MS peak assigned to the compound; for ASMS ratio (%) n = 1: replicate n = 1; for ASMS ratio (%) n = 2: replicate n = 2. The essentials: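 Recombinant human Bcl-2 at 20 μM final was exposed to a 1200-member compound pool (20 nM per compound) in pH 7.4 Tris-HCl buffer containing NaCl, Tween-20 and DTT. After 1 h at 23 °C, protein–ligand complexes passed SEC spin columns; LC/MS signals were compared with protein-free standard and blank samples to give ASMS ratio.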

Structures are written as SMILES.

T1 sequence (P10415 whole entry): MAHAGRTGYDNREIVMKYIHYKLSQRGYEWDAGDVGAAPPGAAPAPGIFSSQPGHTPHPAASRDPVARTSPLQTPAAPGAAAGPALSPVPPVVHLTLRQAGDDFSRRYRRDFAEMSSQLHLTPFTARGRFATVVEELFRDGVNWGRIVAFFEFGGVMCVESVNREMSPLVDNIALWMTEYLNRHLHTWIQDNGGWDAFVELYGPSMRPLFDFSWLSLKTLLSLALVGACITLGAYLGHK

`CCOc1cncc(-c2ccc(CN3CCN(c4ccc(C(=O)NS(C)(=O)=O)nn4)CC3)c(CC)c2)c1` [Compound B2I076-01, 6-[4-[[4-(5-Ethoxypyridin-3-yl)-2-ethylphenyl]methyl]piperazin-1-yl]-N-methylsulfonylpyridazine-3-carboxamide]: the “ASMS ratio (%) n = 1” value was determined as 0.2% and the “ASMS ratio (%) n = 2” value is given as −3.2%.

As for `CCOc1cccc(-c2ccc(CN3CCN(c4ccc(C(=O)NS(C)(=O)=O)nn4)CC3)cc2F)c1` [Compound B2I077-01, 6-[4-[[4-(3-Ethoxyphenyl)-3-fluorophenyl]methyl]piperazin-1-yl]-N-methylsulfonylpyridazine-3-carboxamide], the “ASMS ratio (%) n = 1” value was 0.0% and the “ASMS ratio (%) n = 2” value was found to be 0.0%.

Take `CCOc1cncc(-c2ccc(CN3CCN(c4ccc(C(=O)NS(C)(=O)=O)nn4)CC3)cc2F)c1` [Compound B2I078-01, 6-[4-[[4-(5-Ethoxypyridin-3-yl)-3-fluorophenyl]methyl]piperazin-1-yl]-N-methylsulfonylpyridazine-3-carboxamide]: the “ASMS ratio (%) n = 1” value worked out at 0.0% and the “ASMS ratio (%) n = 2” value came to 0.0%.

With `CCOc1cccc(-c2ccc(CN3CCN(c4ccc(C(=O)NS(C)(=O)=O)nn4)CC3)c(OC)c2)c1` [Compound B2I079-01, 6-[4-[[4-(3-Ethoxyphenyl)-2-methoxyphenyl]methyl]piperazin-1-yl]-N-methylsulfonylpyridazine-3-carboxamide], the “ASMS ratio (%) n = 1” value is reported as 0.0% and the “ASMS ratio (%) n = 2” value is on record as 0.0%.

Regarding `CCOc1cncc(-c2ccc(CN3CCN(c4ccc(C(=O)NS(C)(=O)=O)nn4)CC3)c(OC)c2)c1` [Compound B2I080-01, 6-[4-[[4-(5-Ethoxypyridin-3-yl)-2-methoxyphenyl]methyl]piperazin-1-yl]-N-methylsulfonylpyridazine-3-carboxamide], the “ASMS ratio (%) n = 1” value is listed as 0.0%.

In the case of `CCOc1cccc(-c2cc(CN3CCN(c4ccc(C(=O)NS(C)(=O)=O)nn4)CC3)cc(OCC)c2)c1` [Compound B2I081-01, 6-[4-[[3-Ethoxy-5-(3-ethoxyphenyl)phenyl]methyl]piperazin-1-yl]-N-methylsulfonylpyridazine-3-carboxamide], the “ASMS ratio (%) n = 1” value came to 0.0% and the “ASMS ratio (%) n = 2” value was found to be 0.0%.

Consider `CCOc1cncc(-c2cc(CN3CCN(c4ccc(C(=O)NS(C)(=O)=O)nn4)CC3)cc(OCC)c2)c1` [Compound B2I082-01, 6-[4-[[3-Ethoxy-5-(5-ethoxypyridin-3-yl)phenyl]methyl]piperazin-1-yl]-N-methylsulfonylpyridazine-3-carboxamide], for which the “ASMS ratio (%) n = 1” value amounted to 0.0% and the “ASMS ratio (%) n = 2” value amounted to 1.9%.

With `CCOc1cccc(-c2cc(CN3CCN(c4ccc(C(=O)NS(C)(=O)=O)nn4)CC3)cc(OC(C)C)c2)c1` [Compound B2I083-01, 6-[4-[[3-(3-Ethoxyphenyl)-5-propan-2-yloxyphenyl]methyl]piperazin-1-yl]-N-methylsulfonylpyridazine-3-carboxamide], the “ASMS ratio (%) n = 1” value was 0.0% and the “ASMS ratio (%) n = 2” value was determined as 0.0%.

With `CCOc1cncc(-c2cc(CN3CCN(c4ccc(C(=O)NS(C)(=O)=O)nn4)CC3)cc(OC(C)C)c2)c1` [Compound B2I084-01, 6-[4-[[3-(5-Ethoxypyridin-3-yl)-5-propan-2-yloxyphenyl]methyl]piperazin-1-yl]-N-methylsulfonylpyridazine-3-carboxamide], the “ASMS ratio (%) n = 1” value is −0.9% and the “ASMS ratio (%) n = 2” value is recorded as −1.5%.

`CCOc1cccc(-c2cc(OC)c(CN3CCN(c4ccc(C(=O)NS(C)(=O)=O)nn4)CC3)c(OC)c2)c1` [Compound B2I085-01, 6-[4-[[4-(3-Ethoxyphenyl)-2,6-dimethoxyphenyl]methyl]piperazin-1-yl]-N-methylsulfonylpyridazine-3-carboxamide]: the “ASMS ratio (%) n = 1” value was 0.0% and the “ASMS ratio (%) n = 2” value is reported as 0.0%.

As to `CCOc1cncc(-c2cc(OC)c(CN3CCN(c4ccc(C(=O)NS(C)(=O)=O)nn4)CC3)c(OC)c2)c1` [Compound B2I086-01, 6-[4-[[4-(5-Ethoxypyridin-3-yl)-2,6-dimethoxyphenyl]methyl]piperazin-1-yl]-N-methylsulfonylpyridazine-3-carboxamide], the “ASMS ratio (%) n = 1” value came to 0.0% and the “ASMS ratio (%) n = 2” value stood at 0.0%.

For `CCOc1cccc(-c2cc(CN3CCN(c4ccc(C(=O)NS(C)(=O)=O)nn4)CC3)cc(C(F)(F)F)c2)c1` [Compound B2I087-01, 6-[4-[[3-(3-Ethoxyphenyl)-5-(trifluoromethyl)phenyl]methyl]piperazin-1-yl]-N-methylsulfonylpyridazine-3-carboxamide], the “ASMS ratio (%) n = 1” value was determined as 1.3% and the “ASMS ratio (%) n = 2” value was −0.9%.

As to `CCOc1cncc(-c2cc(CN3CCN(c4ccc(C(=O)NS(C)(=O)=O)nn4)CC3)cc(C(F)(F)F)c2)c1` [Compound B2I088-01, 6-[4-[[3-(5-Ethoxypyridin-3-yl)-5-(trifluoromethyl)phenyl]methyl]piperazin-1-yl]-N-methylsulfonylpyridazine-3-carboxamide], the “ASMS ratio (%) n = 1” value is 0.0% and the “ASMS ratio (%) n = 2” value came to 0.0%.

Regarding `CCOc1cccc(-c2cc(CN3CCN(c4ccc(C(=O)NS(C)(=O)=O)nn4)CC3)cc(OC(F)(F)F)c2)c1` [Compound B2I089-01, 6-[4-[[3-(3-Ethoxyphenyl)-5-(trifluoromethoxy)phenyl]methyl]piperazin-1-yl]-N-methylsulfonylpyridazine-3-carboxamide], the “ASMS ratio (%) n = 1” value is recorded as 1.4% and the “ASMS ratio (%) n = 2” value worked out at 0.0%.

In the case of `CCOc1cncc(-c2cc(CN3CCN(c4ccc(C(=O)NS(C)(=O)=O)nn4)CC3)cc(OC(F)(F)F)c2)c1` [Compound B2I090-01, 6-[4-[[3-(5-Ethoxypyridin-3-yl)-5-(trifluoromethoxy)phenyl]methyl]piperazin-1-yl]-N-methylsulfonylpyridazine-3-carboxamide], the “ASMS ratio (%) n = 1” value worked out at 0.0% and the “ASMS ratio (%) n = 2” value is recorded as 0.0%.

On to `CCOc1cncc(-c2ccc(CN3CCN(c4ccc(C(=O)NS(C)(=O)=O)nn4)CC3)c3ccccc23)c1` [Compound B2I092-01, 6-[4-[[4-(5-Ethoxypyridin-3-yl)naphthalen-1-yl]methyl]piperazin-1-yl]-N-methylsulfonylpyridazine-3-carboxamide], for which the “ASMS ratio (%) n = 1” value is listed as 2.6% and the “ASMS ratio (%) n = 2” value is reported as 0.3%.

`CCOc1cncc(-c2csc(CN3CCN(c4ccc(C(=O)NS(C)(=O)=O)nn4)CC3)c2)c1` [Compound B2I094-01, 6-[4-[[4-(5-Ethoxypyridin-3-yl)thiophen-2-yl]methyl]piperazin-1-yl]-N-methylsulfonylpyridazine-3-carboxamide]: the “ASMS ratio (%) n = 1” value was 0.0% and the “ASMS ratio (%) n = 2” value was 0.0%.

Take `CCOc1cccc(C#Cc2ccccc2CN2CCN(c3ccc(C(=O)NS(C)(=O)=O)nn3)CC2)c1` [Compound B2I095-01, 6-[4-[[2-[2-(3-Ethoxyphenyl)ethynyl]phenyl]methyl]piperazin-1-yl]-N-methylsulfonylpyridazine-3-carboxamide]: the “ASMS ratio (%) n = 1” value was found to be 0.0% and the “ASMS ratio (%) n = 2” value was 0.0%.

For `CCOc1cncc(C#Cc2ccccc2CN2CCN(c3ccc(C(=O)NS(C)(=O)=O)nn3)CC2)c1` [Compound B2I096-01, 6-[4-[[2-[2-(5-Ethoxypyridin-3-yl)ethynyl]phenyl]methyl]piperazin-1-yl]-N-methylsulfonylpyridazine-3-carboxamide], the “ASMS ratio (%) n = 1” value was 0.0% and the “ASMS ratio (%) n = 2” value is 0.0%.

As for `CCOc1cccc(-c2ccc(C(C)N3CCN(c4ccc(C(=O)NS(C)(=O)=O)cc4)CC3)cc2)c1` (stereo not shown) [Compound B2I097-01, 4-[4-[1-[4-(3-Ethoxyphenyl)phenyl]ethyl]piperazin-1-yl]-N-methylsulfonylbenzamide], the “ASMS ratio (%) n = 1” value came to 0.8% and the “ASMS ratio (%) n = 2” value turned out to be 1.4%.

On to `CCOc1cncc(-c2ccc(C(C)N3CCN(c4ccc(C(=O)NS(C)(=O)=O)cc4)CC3)cc2)c1` (stereo not shown) [Compound B2I098-01, 4-[4-[1-[4-(5-Ethoxypyridin-3-yl)phenyl]ethyl]piperazin-1-yl]-N-methylsulfonylbenzamide], for which the “ASMS ratio (%) n = 1” value came to 0.0% and the “ASMS ratio (%) n = 2” value was 0.0%.

As to `CCOc1cccc(-c2ccc(C(C)N3CCN(c4ccc(C(=O)NS(C)(=O)=O)cc4)CC3)c(F)c2)c1` (stereo not shown) [Compound B2I099-01, 4-[4-[1-[4-(3-Ethoxyphenyl)-2-fluorophenyl]ethyl]piperazin-1-yl]-N-methylsulfonylbenzamide], the “ASMS ratio (%) n = 2” value is 0.0%.

For the molecule `CCOc1cccc(-c2csc(C(=O)N3CCN(c4ccc(C(=O)NS(=O)(=O)C(C)(C)C)nn4)CC3)c2)c1` [Compound B2L001-01], the “ASMS ratio (%) n = 1” value is −67.5% and the “ASMS ratio (%) n = 2” value is reported as 0.0%.

As to `CCOc1cncc(-c2csc(C(=O)N3CCN(c4ccc(C(=O)NS(=O)(=O)C(C)(C)C)nn4)CC3)c2)c1` [Compound B2L002-01, N-tert-Butylsulfonyl-6-[4-[4-(5-ethoxypyridin-3-yl)thiophene-2-carbonyl]piperazin-1-yl]pyridazine-3-carboxamide], the “ASMS ratio (%) n = 1” value was determined as 0.0% and the “ASMS ratio (%) n = 2” value is given as 0.0%.

In the case of `CCOc1cccc(-c2ccc(C(=O)N3CCN(c4ccc(C(=O)NS(=O)(=O)C(C)(C)C)nn4)CC3)cc2C)c1` [Compound B2L003-01], the “ASMS ratio (%) n = 1” value is 0.0% and the “ASMS ratio (%) n = 2” value is listed as 0.0%.

`CCOc1cncc(-c2ccc(C(=O)N3CCN(c4ccc(C(=O)NS(=O)(=O)C(C)(C)C)nn4)CC3)cc2C)c1` [Compound B2L004-01]: the “ASMS ratio (%) n = 1” value is on record as 5.5% and the “ASMS ratio (%) n = 2” value is 9.3%.

For `CCOc1cccc(-c2ccc(C(=O)N3CCN(c4ccc(C(=O)NS(=O)(=O)C(C)(C)C)nn4)CC3)cc2F)c1` [Compound B2L005-01], the “ASMS ratio (%) n = 1” value worked out at 0.0% and the “ASMS ratio (%) n = 2” value amounted to 0.0%.
